Data: article PMC9558223, “Staphylococcus aureus is able to generate resistance to novel lipoglycopeptide antibiotic gausemycin A” (Frontiers in Microbiology, 2022)
≈ marks a conversion by molar mass, not a printed value. Where two headings read alike, the source gives them in different places. Where no end group is shown, it is not given here.

Assays:
[1] = test system: S. aureus FDA209P; experiment: Serial passaging in increasing concentrations of antimicrobials; type: cell-based, Staphylococcus aureus; details: for The highest concentration of antibiotic allowing growth: Mueller-Hinton II broth (CaCl2 50 mg/L), 37 °C, 24 h
Procedure: Gausemycin A-resistant variant was obtained by serial passaging as described previously (Pollard et al., [2012]). Isolated colonies of S. aureus FDA209P were inoculated into Mueller-Hinton II broth (CaCl2 50 mg/L) containing twofold dilutions of gausemycin A. The cultures were incubated at 37 °C with aeration for 24 h. After incubation, bacterial cells growing at the highest concentration of gausemycin A (below the MIC) were harvested and used for the next passage. The process was repeated for 20 passages. The dynamic of the developing resistance to gausemycin A was evaluated in comparison with daptomycin and ramoplanin. The experiments were performed in two independent series on separate days with three technical replicates each.

[2] = test system: S. aureus 5812R; experiment: microbe, parasite or virus in culture; type: cell-based, Staphylococcus aureus; details: for MIC: 24 h; for Change of MIC / resistance of S. aureus 5812R compared to parent strain S. aureus FDA209P: ratio of MIC for 5812R and FDA209P; for Cross-resistance of S. aureus 5812R: susceptibility testing of gausemycin A-resistant strain
Procedure: (§1) Minimal inhibitory concentration (MIC) was determined as previously described in Fuchs et al. ([2000]), following the Clinical and Laboratory Standards Institute (CLSI) guidelines for broth microdilution MIC assay. The bacteria were incubated in a 96-well microtiter plate (Eppendorf, Germany) containing 90 μL of inoculum prepared in growth media at 10^6 CFU/ml with 10 μL of twofold dilutions of the antibiotics. The results were evaluated after 24 h of cultivation at 37 °C. The bacterial growth was assessed by scanning the absorbance data at 600 nm obtained by spectrophotometer (Multiscan GO, Thermo Fisher Scientific, US).

[3] = test system: S. aureus FDA209P; experiment: microbe, parasite or virus in culture; type: cell-based, Staphylococcus aureus; details: broth microdilution (CLSI), 10^6 CFU/ml, 24 h, 37 °C, absorbance at 600 nm
Procedure: as §1

[4] = test system: biofilm-embedded staphylococcal cells; details: ref Vasilchenko et al., 2020; cited from earlier work
Source text: These lipoglycopeptides were firstly described in 2016 (Lapchinskaya et al., [2016]), and consequently named gausemycins A and B (Tyurin et al., [2021]). Gausemycin A is a macrocyclic peptide containing 14 amino acids, where tyrosine is glycosylated with arabinose, which makes gausemycin A unique among natural peptide antibiotics (Tyurin et al., [2021]). The closest structurally related compounds are depsipeptides (daptomycin, taromycins, and cadazides) and cyclopeptides ( ...

[5] = test system: S. aureus 5812R; experiment: microbe, parasite or virus in culture; type: cell-based, Staphylococcus aureus; details: 24 h; for MIC: Staphylococcus aureus, 5812R, read-out: MIC alone
Procedure: The effect of gausemycin A in combination with other antibiotics was evaluated using the checkerboard technique with modifications (Nwabor et al., [2021]). Briefly, 80 μL of diluted bacterial suspension (10^6 CFU/mL) was added to wells containing 10 μL of sub-inhibitory concentrations of gausemycin A and 10 μL of sub-inhibitory concentrations of conventional antibiotics. The plates were incubated for 24 h at 37°C. The effects of the antimicrobial combination were defined according to the fractional inhibitory concentration index (FICI). The ΣFICs were calculated as follows:
where FIC A is the MIC of drug A in the combination/MIC of drug A alone; and FIC B is the MIC of drug B in the combination/MIC of drug B alone. The result was interpreted as FIC ≤ 0.5 = Synergism, FIC > 0.5 to 1 = additivity, FIC >1 to 2 = indifference, and FIC >2 antagonism.

[6] = S. aureus 5812R, broth microdilution (CLSI), 10^6 CFU/ml, 37 °C, absorbance at 600 nm
[7] = Staphylococcus aureus, read-out: MIC

Ramoplanin
The highest concentration of antibiotic allowing growth ([1]; passage 1): 3.12 µg/mL
The highest concentration of antibiotic allowing growth ([1]; passage 2): 6.25 µg/mL
The highest concentration of antibiotic allowing growth ([1]; passage 3): 6.25 µg/mL
The highest concentration of antibiotic allowing growth ([1]; passage 4): 12.5 µg/mL
The highest concentration of antibiotic allowing growth ([1]; passage 5): 50 µg/mL
The highest concentration of antibiotic allowing growth ([1]; passage 6): 50 µg/mL
The highest concentration of antibiotic allowing growth ([1]; passage 7): 50 µg/mL
The highest concentration of antibiotic allowing growth ([1]; passage 8): 100 µg/mL
The highest concentration of antibiotic allowing growth ([1]; passage 9): 100 µg/mL
The highest concentration of antibiotic allowing growth ([1]; passage 10): 100 µg/mL
The highest concentration of antibiotic allowing growth ([1]; passage 11): >100 µg/mL
The highest concentration of antibiotic allowing growth ([1]; passage 12): >100 µg/mL
The highest concentration of antibiotic allowing growth ([1]; passage 13): >100 µg/mL
The highest concentration of antibiotic allowing growth ([1]; passage 14): >100 µg/mL
The highest concentration of antibiotic allowing growth ([1]; passage 15): >100 µg/mL
The highest concentration of antibiotic allowing growth ([1]; passage 16): >100 µg/mL
The highest concentration of antibiotic allowing growth ([1]; passage 17): >100 µg/mL
The highest concentration of antibiotic allowing growth ([1]; passage 18): >100 µg/mL
The highest concentration of antibiotic allowing growth ([1]; passage 19): >100 µg/mL
The highest concentration of antibiotic allowing growth ([1]; passage 20): >100 µg/mL
Number of passages within which resistance was formed ([1]; serial passages with sub-inhibitory concentrations): ≤ 10 passages
MIC [2, 6]: 3.12 µg/mL
Change of MIC / resistance of S. aureus 5812R compared to parent strain S. aureus FDA209P [2]: did not differ
Cross-resistance of S. aureus 5812R [2]: absent
MIC [3]: 3.12 µg/mL

CN(C)[C@@H]1C(O)=C(C(N)=O)C(=O)[C@@]2(O)C(O)=C3C(=O)c4c(O)cccc4[C@@](C)(O)[C@H]3C[C@@H]12 [Tetracycline]
MIC ([2]; Staphylococcus aureus, 5812R): 0.94 µg/mL (≈ 2.12 µM)
Cross-resistance of S. aureus 5812R [2]: cross-resistance
MIC [3, 7]: 0.47 µg/mL (≈ 1.06 µM)

CN[C@H](CC(C)C)C(=O)N[C@H]1C(=O)N[C@@H](CC(N)=O)C(=O)N[C@H]2C(=O)N[C@H]3C(=O)N[C@H](C(=O)N[C@H](C(=O)O)c4cc(O)cc(O)c4-c4cc3ccc4O)[C@H](O)c3ccc(c(Cl)c3)Oc3cc2cc(c3O[C@@H]2O[C@H](CO)[C@@H](O)[C@H](O)[C@H]2O[C@H]2C[C@](C)(N)[C@H](O)[C@H](C)O2)Oc2ccc(cc2Cl)[C@H]1O [Vancomycin]
MIC [2, 6]: 0.78 µg/mL (≈ 0.538 µM)
Change of MIC / resistance of S. aureus 5812R compared to parent strain S. aureus FDA209P [2]: did not differ
Cross-resistance of S. aureus 5812R [2]: absent
MIC [3]: 0.78 µg/mL (≈ 0.538 µM)

CCCCCCCCCC(=O)N[C@@H](Cc1c[nH]c2ccccc12)C(=O)N[C@H](CC(N)=O)C(=O)N[C@@H](CC(=O)O)C(=O)N[C@@H]1C(=O)NCC(=O)N[C@@H](CCCN)C(=O)N[C@@H](CC(=O)O)C(=O)N[C@H](C)C(=O)N[C@@H](CC(=O)O)C(=O)NCC(=O)N[C@H](CO)C(=O)N[C@@H]([C@H](C)CC(=O)O)C(=O)N[C@@H](CC(=O)c2ccccc2N)C(=O)O[C@@H]1C [Daptomycin]
Inhibition of biofilm-embedded staphylococcal cells [4]: inactive
The highest concentration of antibiotic allowing growth ([1]; passage 1): 1.25 µg/mL
The highest concentration of antibiotic allowing growth ([1]; passage 2): 1.25 µg/mL
The highest concentration of antibiotic allowing growth ([1]; passage 3): 1.25 µg/mL
The highest concentration of antibiotic allowing growth ([1]; passage 4): 1.25 µg/mL
The highest concentration of antibiotic allowing growth ([1]; passage 5): 1.25 µg/mL
The highest concentration of antibiotic allowing growth ([1]; passage 6): 1.25 µg/mL
The highest concentration of antibiotic allowing growth ([1]; passage 7): 1.25 µg/mL
The highest concentration of antibiotic allowing growth ([1]; passage 8): 1.25 µg/mL
The highest concentration of antibiotic allowing growth ([1]; passage 9): 1.25 µg/mL
The highest concentration of antibiotic allowing growth ([1]; passage 10): 1.25 µg/mL
The highest concentration of antibiotic allowing growth ([1]; passage 11): 1.25 µg/mL
The highest concentration of antibiotic allowing growth ([1]; passage 12): 2.50 µg/mL
The highest concentration of antibiotic allowing growth ([1]; passage 13): 2.50 µg/mL
The highest concentration of antibiotic allowing growth ([1]; passage 14): 2.50 µg/mL
The highest concentration of antibiotic allowing growth ([1]; passage 15): 2.50 µg/mL
The highest concentration of antibiotic allowing growth ([1]; passage 16): 2.50 µg/mL
The highest concentration of antibiotic allowing growth ([1]; passage 17): 2.50 µg/mL
The highest concentration of antibiotic allowing growth ([1]; passage 18): 2.50 µg/mL
The highest concentration of antibiotic allowing growth ([1]; passage 19): 2.50 µg/mL
The highest concentration of antibiotic allowing growth ([1]; passage 20): 5.0 µg/mL
MIC alone ([5]; S. aureus 5812R, single antibiotic, 10^6 CFU/mL, 37 °C): 5.0 µg/mL
MIC [2, 6]: 5.0 µg/mL (≈ 3.09 µM)
Change of MIC / resistance of S. aureus 5812R compared to parent strain S. aureus FDA209P [2]: 4 fold
Cross-resistance of S. aureus 5812R [2]: cross-resistance
MIC [3]: 1.25 µg/mL (≈ 0.771 µM)

CC1(C)S[C@@H]2[C@H](NC(=O)[C@H](N)c3ccccc3)C(=O)N2[C@H]1C(=O)O [Ampicillin]
MIC of Amp in combination ([5]; S. aureus 5812R, combination Amp + GauA, checkerboard, 37 °C): 0.63 µg/mL
MIC [5]: 1.25 µg/mL
MIC ([2]; Staphylococcus aureus, 5812R): 1.25 µg/mL (≈ 3.58 µM)
MIC [3, 7]: 0.16 µg/mL (≈ 0.458 µM)

O=C(O)c1cn(C2CC2)c2cc(N3CCNCC3)c(F)cc2c1=O [Ciprofloxacin]
MIC of Cip in combination ([5]; S. aureus 5812R, combination Cip+ GauA, checkerboard, 37 °C): 0.18 µg/mL

Nisin (ITSISLCTPGCKTGALMGCNMKTATCHCSIHVSK; not fully specified (some residues, bridges); cysteine pairing not given here; UniProt P13068 24-57, looked up)
MIC [2, 6]: 7.8 µg/mL
Change of MIC / resistance of S. aureus 5812R compared to parent strain S. aureus FDA209P [2]: did not differ
Cross-resistance of S. aureus 5812R [2]: absent
MIC [3]: 7.8 µg/mL

Cc1nnc(SCC2=C(C(=O)O)N3C(=O)[C@@H](NC(=O)Cn4cnnn4)[C@H]3SC2)s1 [Cefazolin]
MIC ([2]; Staphylococcus aureus, 5812R): 0.4 µg/mL (≈ 0.88 µM)
Cross-resistance of S. aureus 5812R [2]: cross-resistance
MIC [3, 7]: 0.2 µg/mL (≈ 0.44 µM)

CNC(C)C1CCC(N)C(OC2C(N)CC(N)C(OC3OCC(C)(O)C(NC)C3O)C2O)O1 (stereo not shown) [Gentamicin]
MIC of Gen in combination ([5]; S. aureus 5812R, combination Gen+ GauA, checkerboard, 37 °C): 0.75 µg/mL
MIC [5]: 1.56 µg/mL
MIC ([2]; Staphylococcus aureus, 5812R): 1.56 µg/mL (≈ 3.27 µM)
Change of MIC / resistance of S. aureus 5812R compared to parent strain S. aureus FDA209P [2]: 7.8 fold
Cross-resistance of S. aureus 5812R [2]: cross-resistance
MIC [3, 7]: 0.2 µg/mL (≈ 0.419 µM)
